# From US20050239717A1, “Higher fullerenes useful as radical scavengers” (Nano-C, Inc., priority 2003, published 2005)
# Test: Radical scavenging efficiency test: cigarette smoke bubbled through coarse glass frit into decalin with scavenger, DHR 6G fluorescent probe
# Settings: 150 μM to 300 μM, FIG. 6B
# Procedure: Tests were conducted to study the effectiveness of higher fullerenes against radicals present in cigarette smoke (predominantly peroxyl radical). The cigarette smoke was bubbled through a cylindrical, coarse glass frit into a solvent (decalin) in which radical scavengers were dissolved. The smoke then exited this solvent and was passed through a second flask, in which a fluorescent probe that fluoresces upon oxidation by radicals was used (Dihydrorhodamine 6G (DHR 6G), purchased from Molecular Probes). The variation of fluorescent signal corresponds directly to the radical content of the cigarette smoke, and thus a measure of the reduction of radicals by the radical scavenger is measured. Signals were measured every 10 seconds.
# Tests were conducted to study the sensitivity of the test apparatus in Example 2 to varying concentrations of Vitamin E as a radical scavenger to scavenge radicals present in cigarette smoke (predominantly peroxyl radical). The cigarette smoke was bubbled through a cylindrical, coarse glass frit into a solvent (decalin) in which radical scavengers were dissolved. […] The variation of fluorescent signal corresponds directly to the radical content of the cigarette smoke, and thus a measure of the reduction of radicals by the radical scavenger is measured. Signals were measured every 10 seconds.
substance,measurement,value
Vitamin E,Change of fluorescence signal on doubling the scavenger concentration,very small deflection
